Legend:
[1] = Pharmacokinetic study of DAPB in rats (plasma, UPLC–MS/MS); type: in vivo, Sprague–Dawley (SD) rats
Protocol: Sprague–Dawley (SD) rats (180–200 g) were purchased from the Experimental Animal Center of Xi’an Jiaotong University (permit number SCXK 2017–003) and housed under controlled conditions (25 °C, 50 ± 5% humidity, and 12 h dark–light cycles). The animal protocol was approved by the Animal Ethics Committee of Xi’an Medical College. […] For the intravenous administration group, DAPB prepared in saline containing 5% DMSO was injected in the tail vein at a dose of 6 mg/kg. For the oral administration group, rats were given DAPB dissolved in 10% (2-hydroxypropyl)-β-cyclodextrin in water (10% HP-β-CD solution) containing 20% PEG200 and 20% propylene glycol at a dose of 30 mg/kg orally. Blood samples were collected in heparinized tubes pretreated with NaF via the ophthalmic venous plexus before and at 0.083, 0.17, 0.25, 0.50, 1.00, 2.00, 4.00, and 8.00 h after dosing. After centrifugation, the supernatant plasma was obtained and stored at −80 °C for further treatment. For the preparation of the plasma samples, 10 μL of the IS working solution (1 μg/mL), 1 μL of NaF (5 mg/mL), and 290 μL of acetonitrile were added to 100 μL of the plasma samples. Subsequently, the mixed plasma samples were centrifuged twice at 16,000× g for 5 min at 4 °C after vortexing for 30 s. For analysis, 10 μL of the supernatant was injected into the UPLC–MS/MS apparatus.

[2] = Stability of DAPB in rat plasma (NaF added); type: in vitro ADME; settings: for Stability RE (%): n = 6
Protocol: Esterase widely exists in the blood, serum, and plasma of organisms. Therefore, DAPB may be unstable and easily hydrolyzed by plasma esterases owning to the ester group. In the method-development process, the stability of DAPB in whole blood and plasma was tested in detail. Low temperature is an important factor for maintaining the stability of the analyte; therefore, in our study, an ice-water bath was used to provide cooling conditions. Sodium fluoride (NaF), a typical esterase inhibitor, was pre-added in the collected blood samples to prevent the hydrolysis of DAPB. In the plasma with NaF added, DAPB was stable after being placed at room temperature for 4 h, −80 °C for 30 days, and then subject to three freeze/thaw cycles. In addition, the post-preparative plasma sample stored in an autosampler for 24 h remained stable.
The stability of DAPB in rat plasma was assessed by using QC samples at three concentrations in six replicates following three freeze/thaw cycles, short-term storage (room temperature for […]), long-term storage (−80 °C for 30 consecutive days), and autosampler rack storage (4 °C for 24 h). In freeze/thaw cycle tests, the QC samples were frozen and stored at −80 °C and then thawed at room temperature; this was repeated three times. The values of stability were calculated by comparing the concentrations of the QC samples following each storage period with the concentrations of the freshly prepared QC samples in the same analytical run.

SHR rats = test system: SHR rats; set-up: method as in PMID 37446639; settings: cited from earlier work
[3] = Sprague-Dawley, rat plasma, intravenous administration at 6 mg/kg, mean ± SD (n = 6)
[4] = Sprague-Dawley, rat plasma, oral administration at 30 mg/kg, mean ± SD (n = 6)
[5] = rat plasma, oral administration at 30 mg/kg, mean ± SD (n = 6)

C[C@@H](NC(=O)C(O)Cc1ccc(O)c(O)c1)C(=O)N1CCC[C@H]1C(=O)OC1CC2CCC1(C)C2(C)C (stereo partly drawn) [DAPB, (2R)-3-(3,4-dihydroxyphenyl)-2-hydroxypropionyl-L-alanyl-L-proline bornyl ester]
bioavailability ([1]; Sprague-Dawley, plasma, rat, oral 30 mg/kg vs intravenous 6 mg/kg): 78.2%
AUC(0-inf) [1, 3]: 13.8 ± 2.1 ng·h/mL
AUC(0-t) [1, 3]: 11.8 ± 1.66 ng·h/mL
half-life [1, 3]: 11.4 ± 0.6 min
Vd ([1]; Sprague-Dawley, rat plasma, intravenous administration at 6 mg/kg, mean ± SD (n = 6), read-out: Vss): 910 ± 24.4 L/kg
AUC(0-inf) [1, 4]: 53.9 ± 8.34 ng·h/mL
AUC(0-t) [1, 4]: 49.6 ± 7.92 ng·h/mL
Cmax [1, 4]: 33.2 ± 10.9 ng/mL
Tmax [1, 4]: 14.7 min
half-life [1, 4]: 97.8 ± 21.6 min
CL [1, 5]: 89,992.36 ± 10,292.61 mL/h/kg
Vss [1, 5]: 264.73 ± 65.86 L/kg
Stability RE (%) ([2]; post-preparative rat plasma sample, autosampler rack (4 °C) for 24 h, spiked conc. 5 ng/mL): −11.6%
Stability RE (%) ([2]; post-preparative rat plasma sample, autosampler rack (4 °C) for 24 h, spiked conc. 500 ng/mL): −7.4%
Stability RE (%) ([2]; post-preparative rat plasma sample, autosampler rack (4 °C) for 24 h, spiked conc. 1000 ng/mL): −3.4%
Stability RE (%) ([2]; rat plasma, room temperature for 2 h, spiked conc. 5 ng/mL): −10.2%
Stability RE (%) ([2]; rat plasma, room temperature for 2 h, spiked conc. 500 ng/mL): −7.5%
Stability RE (%) ([2]; rat plasma, room temperature for 2 h, spiked conc. 1000 ng/mL): 1.2%
Stability RE (%) ([2]; rat plasma, three freeze/thaw cycles, spiked conc. 5 ng/mL): −6.4%
Stability RE (%) ([2]; rat plasma, three freeze/thaw cycles, spiked conc. 500 ng/mL): 2.6%
Stability RE (%) ([2]; rat plasma, three freeze/thaw cycles, spiked conc. 1000 ng/mL): −2.0%
Stability RE (%) ([2]; rat plasma, −80 °C for 30 days, spiked conc. 5 ng/mL): 5.3%
Stability RE (%) ([2]; rat plasma, −80 °C for 30 days, spiked conc. 500 ng/mL): −6.2%
Stability RE (%) ([2]; rat plasma, −80 °C for 30 days, spiked conc. 1000 ng/mL): −4.6%
Stability in plasma with NaF added (in words) ([2]; room temperature for 4 h, −80 °C for 30 days, three freeze/thaw cycles): stable
Decrease of diastolic blood pressure (DBP) (SHR rats): 35 mmHg
Decrease of systolic blood pressure (SBP) (SHR rats): 50 mmHg
